Assay results from patent publication US12286411B2, “Indane derivatives for use in the treatment of bacterial infection” (priority 2018, dated 2025).

Key:
[1] = target: T1, LasB elastase (dialysed supernatant from P. aeruginosa PAO1) (Pseudomonas aeruginosa, UniProt P14756); assay: Elastin assay to determine % inhibition (Elastin Congo-Red, dialysed PAO1 supernatant); type: biochemical; settings: read-out: Elastin hydrolysis % inhibition @ 50/25 μM inhibitor concentration
T1 construct: Culture supernatants are recovered by centrifugation and filtrated through a 0.22 μM filter; endogenous in cells; host or cells: P. aeruginosa PAO1 culture supernatant, dialysed
T1 sequence (P14756 198-498): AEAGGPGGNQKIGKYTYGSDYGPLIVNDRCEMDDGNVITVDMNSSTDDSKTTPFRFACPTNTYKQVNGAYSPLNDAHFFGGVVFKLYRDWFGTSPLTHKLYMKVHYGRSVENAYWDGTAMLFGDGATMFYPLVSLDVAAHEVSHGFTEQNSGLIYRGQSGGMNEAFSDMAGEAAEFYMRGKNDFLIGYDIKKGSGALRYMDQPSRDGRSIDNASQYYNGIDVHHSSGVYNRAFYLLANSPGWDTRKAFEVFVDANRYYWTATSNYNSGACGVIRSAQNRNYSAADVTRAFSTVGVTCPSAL
Protocol: Experiments were therefore conducted (1) to measure the potency of inhibition of compounds of the invention against purified Pseudomonas aeruginosa LasB enzyme and also experiments were conducted (2) to measure the ability of compounds of the invention to inhibit LasB-catalysed elastin degradation. The first assay uses a commercial fluorescent synthetic peptide and purified LasB enzyme. The LasB hydrolysis kinetics are measured allowing the determination of the IC50 and Ki of the inhibitors; the second is a more physiological assay using dialysed Pseudomonas aeruginosa supernatant as source of enzyme, plus its natural substrate Elastin. It is an “end point assay” that determines the percentage of LasB inhibition by each compound for one particular time point and inhibitor concentration. Technical details are described below:
The Elastin assay uses as source of enzyme dialysed supernatant from P. aeruginosa PAO1 and the Elastin Congo-Red as substrate. The natural LasB substrate, elastin, is complexed with the congo-red dye (Elastin Congo-Red, ECR). The elastolysis activity from the culture supernatant will degrade elastin and release the congo-red dye into the supernatant. This red dye release can be measured with a spectrophotometer.
Method: To determine LasB elastase activity and assess compound inhibition, an overnight culture of P. aeruginosa strain PA01 is diluted in LB medium. After reaching an ° Dam. of 0.6, this culture is diluted and incubated for additional 18-24 hours in a shaking incubator. Culture supernatants are recovered by centrifugation and filtrated through a […] filter. These supernatants are dialysed (filtration molecules <20 kDa) into a 50 mM Tris-HCl pH 7.4, 2.5 mM CaCl2 solution at 4° C. under agitation for 24 hours. Supernatant dialysed is then mixed volume/volume with the ECR suspension (20 mg/mL of ECR in 100 mM Tris-HCl pH 7.4 buffer supplemented with 1 mM CaCl2) supplemented with Triton X100 (final concentration of 0.01%) in presence of DMSO (positive control) and/or different concentrations of compound (routinely 50 to 1.56 μM). As a negative control, the dialysed supernatant is replaced by Tris-HCl solution (50 mM Tris-HCl pH 7.4, 2.5 mM CaCl2). The mixed reaction is then incubated overnight in a 37° C. shaking incubator. The reaction supernatant is recovered by centrifugation and the release of congo-red is measured by its absorbance at 495 nm (OD495nm).
Percentage inhibition is determined using the following equation: ((OD495nm value of positive control−OD495nm value of negative control)−(OD495nm value of treated supernatant OD495nm value of negative control))/(OD495nm value of positive control−OD495nm value of negative control)×100.

[2] = tested on: Pseudomonas aeruginosa (PAO1); assay: Mouse model of Pseudomonas aeruginosa lung infection; type: in vivo; settings: mice infected intranasally with wild-type PAO1, compound i.v. 1 h and 2 h post infection, 10 and 30 mg/kg, 24 hours post infection
Protocol: Mice were dosed by intranasal inoculation of PA (PAO1), then scarified after 24 hours. The extent of infection in the lung was quantified by bacterial load (CFU determination, colony forming units) and the levels of proinflammatory IL-1β. Statistical analysis on both readouts were performed by ANOVA with a Dunnett post-test.
Compounds were administered intravenously in a two-dose regimen (1 hour and 2 hours post infection) at two different doses (10 and 30 mg/kg).

Structure (SMILES)	inhibition at 25 µM [1] [%]	production and activation of IL-1β in the lung ([2]; FIG. 2)	extent of infection in the lung (CFU levels) ([2]; FIG. 3)
O=C(O)CC1(C(=O)NCc2nc3ccc(OCCCO)cc3s2)Cc2ccccc2C1 [Example 1, 2-[2-[[6-(3-hydroxypropoxy)-1,3-benzothiazol-2-yl]methylcarbamoyl]indan-2-yl]acetic acid]	> 75		
CCCOc1ccc2nc(CNC(=O)C3(CC(=O)O)Cc4ccccc4C3)sc2c1 [Example 2, 2-[2-[(6-propoxy-1,3-benzothiazol-2-yl)methylcarbamoyl]indan-2-yl]acetic acid]	> 75		
COc1cc2sc(CNC(=O)C3(CC(=O)O)Cc4ccccc4C3)nc2cc1OCCCN(C)C [Example 3, 2-[2-[[5-[3-(dimethylamino)propoxy]-6-methoxy-1,3-benzothiazol-2-yl]methylcarbamoyl]indan-2-yl]acetic acid]	> 75		
COc1cc2sc(CNC(=O)C3(CC(=O)[O-])Cc4ccccc4C3)nc2cc1OCCC[N+](C)(C)C [Example 4, 2-[2-[[6-methoxy-5-[3-(trimethylammonio)propoxy]-1,3-benzothiazol-2-yl]methylcarbamoyl]indan-2-yl]acetate]	> 75	inhibited the production and activation of IL-1β in mice infected by wild-type PA (PA01) at a similar level than the lasB deleted mutant	reduced the extent of infection in the lung to the level of the LasB deleted mutant
COc1cc2sc(CNC(=O)C3(CC(=O)[O-])Cc4ccccc4C3)nc2cc1OCCOCC[N+](C)(C)C [Example 5, 2-[2-[[6-methoxy-5-[2-[2-(trimethylammonio)ethoxy]ethoxy]-1,3-benzothiazol-2-yl]methylcarbamoyl]indan-2-yl]acetate]	60 to 75		
COc1cc2sc(CNC(=O)C3(CC(=O)[O-])Cc4cc(F)c(F)cc4C3)nc2cc1OCCOCC[N+](C)(C)C [Example 6, 2-[5,6-difluoro-2-[[6-methoxy-5-[2-[2-(trimethylammonio)ethoxy]ethoxy]-1,3-benzothiazol-2-yl]methylcarbamoyl]indan-2-yl]acetate]	> 75		
COc1cc2sc(CNC(=O)C3(CC(=O)[O-])Cc4cc(F)c(F)cc4C3)nc2cc1OCC[N+](C)(C)C [Example 7, 2-[5,6-difluoro-2-[[6-methoxy-5-[2-(trimethylammonio)ethoxy]-1,3-benzothiazol-2-yl]methylcarbamoyl]indan-2-yl]acetate]	60 to 75		
